Measurements published in publication PMC8237569 (Proceedings of the National Academy of Sciences of the …, 2021).
Values after ≈ are worked out from the molar mass of the structure shown. Like-named read-outs stand apart in the source and are kept apart here.

What was measured:
[1] = system: NC1=NC2(CCCCC2)N(c2ccc(OCc3cn(CCCCOc4ccc5ccc(=O)oc5c4)nn3)cc2)C(N)=N1; assay: purified protein, by the assay type; conditions: pH 7.5
[2] = system: M. tuberculosis H37Rv (ATCC 27294), wt; assay: microbe, parasite or virus in culture; format: cell-based; conditions: Mycobacterium tuberculosis, ATCC27294|H37RV
F-ATP synthase = conditions: read-out: IC50 against F-ATP synthase; cited from earlier work

Row | Molecule | MIC50 [2] | other results
1 | Ddn (Rv3547) (Mycobacterium tuberculosis H37Rv) | – | Km [1]: 3.47 ± 0.51 µM
2 | NNC(=O)c1ccncc1 [INH, isoniazid] | 400 nM (≈ 0.0549 µg/mL) | –
3 | COc1nc2ccc(Br)cc2cc1[C@@H](c1ccccc1)[C@@](O)(CCN(C)C)c1cccc2ccccc12 [Bedaquiline] | – | IC50 (F-ATP synthase): 2.5 nM
4 | Nc1ccc(C(=O)O)c(O)c1 [PAS, para-aminosalicylic acid] | 200 nM (≈ 0.0306 µg/mL) | –
5 | CO[C@H]1/C=C/O[C@@]2(C)Oc3c(C)c(O)c4c(O)c(c(/C=N/N5CCN(C)CC5)c(O)c4c3C2=O)NC(=O)/C(C)=C\C=C\[C@H](C)[C@H](O)[C@@H](C)[C@@H](O)[C@@H](C)[C@H](OC(C)=O)[C@@H]1C [RIF, rifampicin] | – | MIC50 ([2]; read-out: MIC50, RIF (nM)): 1.6 nM (≈ 0.00132 µg/mL)
6 | O=[N+]([O-])c1cn2c(n1)OC[C@@H](OCc1ccc(OC(F)(F)F)cc1)C2 [PTM, pretomanid] | 200 nM (≈ 0.0719 µg/mL) | –
